From patent US20230085307A1, “PYRIDAZINONE COMPOUND AND HERBICIDE” (NISSAN CHEMICAL CORPORATION, priority 2019, published 2023)

Tests used:
blackgrass [1] = assay: Test Example 5: herbicidal effect by foliage application, plastic box (Table 20, symbol J); type: in vivo, blackgrass (Alopecurus myosuroides); conditions: amount of applied herbicide 320 g/ha; foliage application after 14-day growth; evaluated three weeks after application
Procedure, shortened: (§1)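 Plants were sown into sterilized diluvial soil under about 1.5 cm cover and kept in a greenhouse at 25° C. to 30° C. Fourteen days on, foliage received an even spray of the diluted emulsion. Herbicidal or crop effect was judged three weeks afterwards.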

persian speedwell [2] = assay: Test Example 4: herbicidal effect by soil treatment (Table 19, symbol R); type: in vivo, Persian speedwell (Veronica persica); conditions: amount of applied herbicide 320 g/ha
Procedure, shortened: (§2)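 Pre-emergence style soil spray: seeds under ~1.5 cm sterilized diluvial soil received a uniform coat of emulsion diluted to the predetermined herbicide amount. Greenhouse 25–30° C; readout at week three on previously defined criteria.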

redroot pigweed [3] = assay: Test Example 5: herbicidal effect by foliage application, plastic box (Table 20, symbol N); type: in vivo, redroot pigweed (Amaranthus retroflexus); conditions: amount of applied herbicide 320 g/ha; foliage application after 14-day growth; evaluated three weeks after application
Procedure, shortened: as §1

persian speedwell [4] = assay: Test Example 5: herbicidal effect by foliage application, plastic box (Table 20, symbol R); type: in vivo, Persian speedwell (Veronica persica); conditions: amount of applied herbicide 320 g/ha; foliage application after 14-day growth; evaluated three weeks after application
Procedure, shortened: as §1

Japanese bulrush = assay: Test Example 1: herbicidal activity, application before weed generation under submerged conditions (Table 16, symbol B); type: in vivo, Japanese bulrush (Schoenoplectus juncoides); conditions: amount of applied herbicide 320 g/ha
Procedure, shortened: (§3)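 Submerged Wagner pots (alluvial soil, 4 cm water) sown with weed seeds and planted with 2.5-leaf rice seedlings; emulsifiable concentrate diluted in water applied to water surface on sowing day. Held in greenhouse at 25-30 °C; injury scored 0-5 by herbicidal rate after three weeks.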

rice flat sedge = assay: Test Example 3: herbicidal effect by foliage application, Wagner pot (Table 18, symbol E); type: in vivo, rice flat sedge (Cyperus iria); conditions: 320 g/ha
Procedure, shortened: (§4)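 Plants were sown in alluvial soil held under 0.1–0.5 cm standing water and grown 14 days in a greenhouse at 25–30 °C. An emulsifiable formulation, water-diluted to the set dose, was then sprayed onto the foliage, and effects were scored three weeks later using previously defined criteria.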

lambsquarters [5] = assay: Test Example 5: herbicidal effect by foliage application, plastic box (Table 20, symbol O); type: in vivo, lambsquarters (Chenopodium album); conditions: amount of applied herbicide 320 g/ha; foliage application after 14-day growth; evaluated three weeks after application
Procedure, shortened: as §1

southern crabgrass [6] = assay: Test Example 5: herbicidal effect by foliage application, plastic box (Table 20, symbol F); type: in vivo, southern crabgrass (Digitaria ciliaris); conditions: amount of applied herbicide 320 g/ha; foliage application after 14-day growth; evaluated three weeks after application
Procedure, shortened: as §1

barnyard grass [7] = assay: Test Example 5: herbicidal effect by foliage application, plastic box (Table 20, symbol H); type: in vivo, barnyard grass (Echinochloa crus-galli); conditions: amount of applied herbicide 320 g/ha; foliage application after 14-day growth; evaluated three weeks after application
Procedure, shortened: as §1

southern crabgrass [8] = assay: Test Example 4: herbicidal effect by soil treatment (Table 19, symbol F); type: in vivo, southern crabgrass (Digitaria ciliaris); conditions: amount of applied herbicide 320 g/ha
Procedure, shortened: as §2

false cleavers = assay: Test Example 5: herbicidal effect by foliage application, plastic box (Table 20, symbol Q); type: in vivo, false cleavers (Galium spurium); conditions: amount of applied herbicide 320 g/ha; foliage application after 14-day growth; evaluated three weeks after application
Procedure, shortened: as §1

barnyard grass [9] = assay: Test Example 3: herbicidal effect by foliage application, Wagner pot (Table 18, symbol H); type: in vivo, barnyard grass (Echinochloa crus-galli); conditions: 320 g/ha
Procedure, shortened: as §4

Chinese sprangletop = assay: Test Example 3: herbicidal effect by foliage application, Wagner pot (Table 18, symbol D); type: in vivo, chinese sprangletop (Leptochloa chinensis); conditions: 320 g/ha
Procedure, shortened: as §4

blackgrass [10] = assay: Test Example 4: herbicidal effect by soil treatment (Table 19, symbol J); type: in vivo, blackgrass (Alopecurus myosuroides); conditions: amount of applied herbicide 320 g/ha
Procedure, shortened: as §2

chickweed [11] = assay: Test Example 4: herbicidal effect by soil treatment (Table 19, symbol P); type: in vivo, common chickweed (Stellaria media); conditions: amount of applied herbicide 320 g/ha
Procedure, shortened: as §2

lambsquarters [12] = assay: Test Example 4: herbicidal effect by soil treatment (Table 19, symbol O); type: in vivo, lambsquarters (Chenopodium album); conditions: amount of applied herbicide 320 g/ha
Procedure, shortened: as §2

Italian ryegrass [13] = assay: Test Example 4: herbicidal effect by soil treatment (Table 19, symbol K); type: in vivo, Italian ryegrass (Lolium multiflorum); conditions: amount of applied herbicide 320 g/ha
Procedure, shortened: as §2

windgrass [14] = assay: Test Example 4: herbicidal effect by soil treatment (Table 19, symbol L); type: in vivo, windgrass (Apera spica-venti); conditions: amount of applied herbicide 320 g/ha
Procedure, shortened: as §2

barnyard grass [15] = assay: Test Example 4: herbicidal effect by soil treatment (Table 19, symbol H); type: in vivo, barnyard grass (Echinochloa crus-galli); conditions: amount of applied herbicide 320 g/ha
Procedure, shortened: as §2

green foxtail [16] = assay: Test Example 5: herbicidal effect by foliage application, plastic box (Table 20, symbol G); type: in vivo, green foxtail (Setaria viridis); conditions: amount of applied herbicide 320 g/ha; foliage application after 14-day growth; evaluated three weeks after application
Procedure, shortened: as §1

green foxtail [17] = assay: Test Example 4: herbicidal effect by soil treatment (Table 19, symbol G); type: in vivo, green foxtail (Setaria viridis); conditions: amount of applied herbicide 320 g/ha
Procedure, shortened: as §2

oval-leafed pondweed = assay: Test Example 1: herbicidal activity, application before weed generation under submerged conditions (Table 16, symbol C); type: in vivo, oval-leafed pondweed (Monochoria vaginalis); conditions: amount of applied herbicide 320 g/ha
Procedure, shortened: as §3

wild oat [18] = assay: Test Example 5: herbicidal effect by foliage application, plastic box (Table 20, symbol I); type: in vivo, wild oat (Avena fatua); conditions: amount of applied herbicide 320 g/ha; foliage application after 14-day growth; evaluated three weeks after application
Procedure, shortened: as §1

wild oat [19] = assay: Test Example 4: herbicidal effect by soil treatment (Table 19, symbol I); type: in vivo, wild oat (Avena fatua); conditions: amount of applied herbicide 320 g/ha
Procedure, shortened: as §2

velvetleaf [20] = assay: Test Example 4: herbicidal effect by soil treatment (Table 19, symbol M); type: in vivo, velvetleaf (Abutilon theophrasti); conditions: amount of applied herbicide 320 g/ha
Procedure, shortened: as §2

redroot pigweed [21] = assay: Test Example 4: herbicidal effect by soil treatment (Table 19, symbol N); type: in vivo, redroot pigweed (Amaranthus retroflexus); conditions: amount of applied herbicide 320 g/ha
Procedure, shortened: as §2

windgrass [22] = assay: Test Example 5: herbicidal effect by foliage application, plastic box (Table 20, symbol L); type: in vivo, windgrass (Apera spica-venti); conditions: amount of applied herbicide 320 g/ha; foliage application after 14-day growth; evaluated three weeks after application
Procedure, shortened: as §1

late watergrass = assay: Test Example 1: herbicidal activity, application before weed generation under submerged conditions (Table 16, symbol A); type: in vivo, late watergrass (Echinochloa oryzicola); conditions: amount of applied herbicide 320 g/ha
Procedure, shortened: as §3

velvetleaf [23] = assay: Test Example 5: herbicidal effect by foliage application, plastic box (Table 20, symbol M); type: in vivo, velvetleaf (Abutilon theophrasti); conditions: amount of applied herbicide 320 g/ha; foliage application after 14-day growth; evaluated three weeks after application
Procedure, shortened: as §1

chickweed [24] = assay: Test Example 5: herbicidal effect by foliage application, plastic box (Table 20, symbol P); type: in vivo, common chickweed (Stellaria media); conditions: amount of applied herbicide 320 g/ha; foliage application after 14-day growth; evaluated three weeks after application
Procedure, shortened: as §1

Italian ryegrass [25] = assay: Test Example 5: herbicidal effect by foliage application, plastic box (Table 20, symbol K); type: in vivo, Italian ryegrass (Lolium multiflorum); conditions: amount of applied herbicide 320 g/ha; foliage application after 14-day growth; evaluated three weeks after application
Procedure, shortened: as §1

COc1ccccc1-c1sc2cc(F)c(F)cc2c1-c1c(O)c(C)nn(C)c1=O [5-011]
Herbicidal effect by foliage application, J: blackgrass (blackgrass [1]): 3 (Herbicidal rate of 40% or more and less than 70%)
R: persian speedwell, herbicidal effect grade (persian speedwell [2]): 5 (Herbicidal rate of 90% or more (almost completely withered))
Herbicidal effect by foliage application, N: redroot pigweed (redroot pigweed [3]): 5 (Herbicidal rate of 90% or more (almost completely withered))
Herbicidal effect by foliage application, R: persian speedwell (persian speedwell [4]): 5 (Herbicidal rate of 90% or more (almost completely withered))
Herbicidal effect, B: Japanese bulrush (Japanese bulrush): 2 (Herbicidal rate of 20% or more and less than 40%)
herbicidal effect on rice flat sedge (E) (rice flat sedge): 5 (Herbicidal rate of 90% or more (almost completely withered))
Herbicidal effect by foliage application, O: lambsquarters (lambsquarters [5]): 4 (Herbicidal rate of 70% or more and less than 90%)
Herbicidal effect by foliage application, F: southern crabgrass (southern crabgrass [6]): 2 (Herbicidal rate of 20% or more and less than 40%)
Herbicidal effect by foliage application, H: barnyard grass (barnyard grass [7]): 4 (Herbicidal rate of 70% or more and less than 90%)
F: southern crabgrass, herbicidal effect grade (southern crabgrass [8]): 3 (Herbicidal rate of 40% or more and less than 70%)
Herbicidal effect by foliage application, Q: false cleavers (false cleavers): 5 (Herbicidal rate of 90% or more (almost completely withered))
herbicidal effect on barnyard grass (H) (barnyard grass [9]): 5 (Herbicidal rate of 90% or more (almost completely withered))
herbicidal effect on Chinese sprangletop (D) (Chinese sprangletop): 3 (Herbicidal rate of 40% or more and less than 70%)
J: blackgrass, herbicidal effect grade (blackgrass [10]): 3 (Herbicidal rate of 40% or more and less than 70%)
P: chickweed, herbicidal effect grade (chickweed [11]): 3 (Herbicidal rate of 40% or more and less than 70%)
O: lambsquarters, herbicidal effect grade (lambsquarters [12]): 5 (Herbicidal rate of 90% or more (almost completely withered))
K: Italian ryegrass, herbicidal effect grade (Italian ryegrass [13]): 3 (Herbicidal rate of 40% or more and less than 70%)
L: windgrass, herbicidal effect grade (windgrass [14]): 4 (Herbicidal rate of 70% or more and less than 90%)
H: barnyard grass, herbicidal effect grade (barnyard grass [15]): 4 (Herbicidal rate of 70% or more and less than 90%)
Herbicidal effect by foliage application, G: green foxtail (green foxtail [16]): 5 (Herbicidal rate of 90% or more (almost completely withered))
G: green foxtail, herbicidal effect grade (green foxtail [17]): 4 (Herbicidal rate of 70% or more and less than 90%)
Herbicidal effect, C: oval-leafed pondweed (oval-leafed pondweed): 0 (Herbicidal rate of 5% or less (almost no effect))
Herbicidal effect by foliage application, I: wild oat (wild oat [18]): 3 (Herbicidal rate of 40% or more and less than 70%)
I: wild oat, herbicidal effect grade (wild oat [19]): 0 (Herbicidal rate of 5% or less (almost no effect))
M: velvetleaf, herbicidal effect grade (velvetleaf [20]): 5 (Herbicidal rate of 90% or more (almost completely withered))
N: redroot pigweed, herbicidal effect grade (redroot pigweed [21]): 5 (Herbicidal rate of 90% or more (almost completely withered))
Herbicidal effect by foliage application, L: windgrass (windgrass [22]): 4 (Herbicidal rate of 70% or more and less than 90%)
Herbicidal effect, A: late watergrass (late watergrass): 2 (Herbicidal rate of 20% or more and less than 40%)
Herbicidal effect by foliage application, M: velvetleaf (velvetleaf [23]): 5 (Herbicidal rate of 90% or more (almost completely withered))
Herbicidal effect by foliage application, P: chickweed (chickweed [24]): 5 (Herbicidal rate of 90% or more (almost completely withered))
Herbicidal effect by foliage application, K: Italian ryegrass (Italian ryegrass [25]): 3 (Herbicidal rate of 40% or more and less than 70%)
